Tests used:
Type in all cases: functional
[1] = system: Staphylococcus aureus; assay: Antibacterial activity against methicillin-resistant Staphylococcus aureus 11 assessed as bacterial growth inhibition in presence of 50 ug/ml calcium ions by CLSI protocol based broth microdilution method
[2] = system: Staphylococcus aureus; assay: Antibacterial activity against methicillin-resistant Staphylococcus aureus 14 assessed as bacterial growth inhibition in presence of 50 ug/ml calcium ions by CLSI protocol based broth microdilution method
[3] = system: Staphylococcus aureus; assay: Antibacterial activity against methicillin-resistant Staphylococcus aureus 86 assessed as bacterial growth inhibition in presence of 50 ug/ml calcium ions by CLSI protocol based broth microdilution method
[4] = system: Staphylococcus aureus; assay: Antibacterial activity against methicillin-resistant Staphylococcus aureus 88 assessed as bacterial growth inhibition in presence of 50 ug/ml calcium ions by CLSI protocol based broth microdilution method
[5] = system: Staphylococcus aureus; assay: Antibacterial activity against Staphylococcus aureus ATCC 29213 assessed as bacterial growth inhibition in presence of 50 ug/ml calcium ions by CLSI protocol based broth microdilution method
[6] = system: Enterococcus faecalis; assay: Antibacterial activity against Streptococcus faecalis assessed as bacterial growth inhibition in presence of 50 ug/ml calcium ions by CLSI protocol based broth microdilution method
[7] = system: Enterococcus; assay: Antibacterial activity against Enterococcus 6 assessed as bacterial growth inhibition in presence of 50 ug/ml calcium ions by CLSI protocol based broth microdilution method
[8] = system: Enterococcus; assay: Antibacterial activity against Enterococcus 60 assessed as bacterial growth inhibition in presence of 50 ug/ml calcium ions by CLSI protocol based broth microdilution method
[9] = system: Enterococcus faecalis; assay: Antibacterial activity against Enterococcus faecalis ATCC 29212 assessed as bacterial growth inhibition in presence of 50 ug/ml calcium ions by CLSI protocol based broth microdilution method

Measured: MIC

CCCCCCCCCC(=O)N[C@@H](Cc1c[nH]c2ccccc12)C(=O)N[C@@H](CC(N)=O)C(=O)N[C@@H](CC(=O)O)C(=O)N[C@@H]1C(=O)NCC(=O)N[C@@H](CC(C)C)C(=O)N[C@@H](CC(=O)O)C(=O)N[C@H](C)C(=O)N[C@@H](CC(=O)O)C(=O)NCC(=O)N[C@H](CO)C(=O)N[C@@H]([C@@H](C)CC(=O)O)C(=O)N[C@@H](CC(=O)c2ccccc2N)C(=O)O[C@@H]1C
2 µg/mL: [4]
16 µg/mL: [8]
4 µg/mL: [3] | [5]
1 µg/mL: [1]
0.5 µg/mL: [2]
≥ 32 µg/mL: all other assays above

CCCCCCCCCC(=O)N[C@@H](Cc1c[nH]c2ccccc12)C(=O)N[C@@H](CC(N)=O)C(=O)N[C@@H](CC(=O)O)C(=O)N[C@@H]1C(=O)NCC(=O)N[C@@H](CCC(N)=O)C(=O)N[C@@H](CC(=O)O)C(=O)N[C@H](C)C(=O)N[C@@H](CC(=O)O)C(=O)NCC(=O)N[C@H](CO)C(=O)N[C@@H]([C@@H](C)CC(=O)O)C(=O)N[C@@H](CC(=O)c2ccccc2N)C(=O)O[C@@H]1C
4 µg/mL: [3] | [4] | [5]
≥ 32 µg/mL: all other assays above

CCCCCCCCCC(=O)N[C@@H](Cc1c[nH]c2ccccc12)C(=O)N[C@@H](CC(N)=O)C(=O)N[C@@H](CC(=O)O)C(=O)N[C@@H]1C(=O)NCC(=O)N2CCC[C@H]2C(=O)N[C@@H](CC(=O)O)C(=O)N[C@H](C)C(=O)N[C@@H](CC(=O)O)C(=O)NCC(=O)N[C@H](CO)C(=O)N[C@@H]([C@@H](C)CC(=O)O)C(=O)N[C@@H](CC(=O)c2ccccc2N)C(=O)O[C@@H]1C
≥ 32 µg/mL: all assays above

CCCCCCCCCC(=O)N[C@@H](Cc1ccncc1)C(=O)N[C@@H](CC(N)=O)C(=O)N[C@@H](CC(=O)O)C(=O)N[C@@H]1C(=O)NCC(=O)N[C@@H](CCCN)C(=O)N[C@@H](CC(=O)O)C(=O)N[C@H](C)C(=O)N[C@@H](CC(=O)O)C(=O)NCC(=O)N[C@H](CO)C(=O)N[C@@H]([C@@H](C)CC(=O)O)C(=O)N[C@@H](CC(=O)c2ccccc2N)C(=O)O[C@@H]1C
≥ 32 µg/mL: all assays above

CCCCCCCCCC(=O)N[C@@H](Cc1c[nH]c2ccccc12)C(=O)N[C@@H](CC(N)=O)C(=O)N[C@@H](CC(=O)O)C(=O)N[C@@H]1C(=O)NCC(=O)N[C@@H](CCCN)C(=O)N[C@@H](CC(=O)O)C(=O)N[C@H](C)C(=O)N[C@@H](C)C(=O)NCC(=O)N[C@H](CO)C(=O)N[C@@H]([C@@H](C)CC(=O)O)C(=O)N[C@@H](CC(=O)c2ccccc2N)C(=O)O[C@@H]1C
≥ 64 µg/mL: all assays above

CCCCCCCCCC(=O)N[C@@H](Cc1c[nH]c2ccccc12)C(=O)N[C@@H](CC(N)=O)C(=O)N[C@@H](C)C(=O)N[C@@H]1C(=O)NCC(=O)N[C@@H](CCCN)C(=O)N[C@@H](CC(=O)O)C(=O)N[C@H](C)C(=O)N[C@@H](CC(=O)O)C(=O)NCC(=O)N[C@H](CO)C(=O)N[C@@H]([C@@H](C)CC(=O)O)C(=O)N[C@@H](CC(=O)c2ccccc2N)C(=O)O[C@@H]1C
16 µg/mL: [3] | [4] | [5]
≥ 32 µg/mL: all other assays above

CCCCCCCCCC(=O)N[C@@H](Cc1c[nH]c2ccccc12)C(=O)N[C@@H](CC(N)=O)C(=O)N[C@@H](CC(=O)O)C(=O)N[C@@H]1C(=O)NCC(=O)N[C@@H](CCCN)C(=O)N[C@@H](CC(=O)O)C(=O)N[C@H](C)C(=O)N[C@@H](C(C)CC(=O)O)C(=O)NCC(=O)N[C@H](CO)C(=O)N[C@@H](C(C)CC(=O)O)C(=O)N[C@@H](CC(=O)c2ccccc2N)C(=O)O[C@@H]1C (single isomer, unassigned)
≥ 32 µg/mL: all assays above
